Assay results taken from patent US12233057B2, “Small molecules for inhibiting chemokine activity and/or cancer cells growth” (AlonBio Ltd., priority 2015, dated 2025).

Columns and labels:
MIP3a = MIP3a (Homo sapiens, UniProt P78556); test: Migration assay: CD4+ T-cells toward MIP3a (Transwell); format: cell-based; details: BKT300 at 78% purity, 50 μg/ml
Experimental: (§1) 600 μl of RPMI medium was added to the lower chambers of Transwell® transmigration plates, supplemented with 2 μg/ml of MIP3a, 100 ng/ml of SDF-1 or 10 ng/ml of MCP-1. The tested small molecule was added to the lower chambers at the indicated concentration, except in control samples. The MIP3a, SDF-1 or MCP-1 was incubated with the small molecule for 30 minutes at room temperature before the initiation of the migration assay. Following 30 minutes of incubation 2×10^5 immune cells were added to the upper chambers of the transmigration plates in a total volume of 100 μl. Cells which migrated within 3 hours to the bottom chamber of the Transwell® plates were counted using a FACScalibur™ flow cytometer.
To evaluate migration toward MIP3a, peripheral blood mononuclear cells (PBMCs) were isolated from heparinized venous blood by centrifugation over Ficoll Histopaque® 1077. CD4+ T cells were further isolated with RosetteSep™ human CD4+ T-cell Enrichment cocktail (StemCell Technologies Inc.), according to the manufacturer's instructions.
The 18 compounds uncovered by the screening assay were further tested for their ability, at final concentrations of 10 and 50 μg/ml, to inhibit the migration of human CD4+ T-cells toward MIP3a; and to inhibit the migration of immune cells in response to MCP-1 and SDF-1, using the procedures described in the Materials and Methods section hereinabove.

CDC7/DBF4 = CDC7/DBF4 (Homo sapiens, UniProt O00311); test: LanthaScreen europium kinase binding assay; details: BKT300 at 78% purity
Experimental: (§2) In order to further characterize the effect of BKT300 on cell signaling, kinase profiling of BKT300 (at 78% purity) was performed (by the Life Technologies SelectScreen® Biochemical Profiling Lab) using a LanthaScreen® europium kinase binding assay to screen 440 kinases.
(§3) The principle of the LanthaScreen® assay is depicted in FIG. 13. Binding of an Alexa Fluor® conjugate or “tracer” to a kinase is detected by addition of a europium (Eu)-labeled anti-tag antibody. Binding of the tracer and antibody to a kinase results in a high degree of FRET, whereas displacement of the tracer with a kinase inhibitor results in a loss of FRET. The kinase tracers are based on ATP-competitive kinase inhibitors, making them suitable for detection of any compounds that bind to the ATP site. Inhibitors that bind the ATP site include both Type I kinase inhibitors, which bind solely to the ATP site, and Type II inhibitors (e.g., imatinib, sorafenib, BIRB-796), which bind to both the ATP site and a second site often referred to as the allosteric site.

KIT T670E = KIT T670E (Homo sapiens, UniProt P10721, T670E); test: LanthaScreen europium kinase binding assay; details: BKT300 at 78% purity
Experimental: as §2, §3

MLCK (MLCK2) = MLCK (MLCK2) (Homo sapiens, UniProt Q9H1R3); test: LanthaScreen europium kinase binding assay; details: BKT300 at 78% purity
Experimental: as §2, §3

STK38 (NDR) = STK38 (NDR) (Homo sapiens, UniProt Q15208); test: LanthaScreen europium kinase binding assay; details: BKT300 at 78% purity
Experimental: as §2, §3

DYRK2 = DYRK2 (Homo sapiens, UniProt Q92630); test: LanthaScreen europium kinase binding assay; details: BKT300 at 78% purity
Experimental: as §2, §3

TTK = TTK (Homo sapiens, UniProt P33981); test: LanthaScreen europium kinase binding assay; details: BKT300 at 78% purity
Experimental: as §2, §3

ACVRL1 (ALK1) = ACVRL1 (ALK1) (Homo sapiens, UniProt P37023); test: LanthaScreen europium kinase binding assay; details: BKT300 at 78% purity
Experimental: as §2, §3

DAPK1 = DAPK1 (Homo sapiens, UniProt P53355); test: LanthaScreen europium kinase binding assay; details: BKT300 at 78% purity
Experimental: as §2, §3

PIK3CD = PIK3CD (Homo sapiens, UniProt O00329); test: LanthaScreen europium kinase binding assay; details: BKT300 at 78% purity
Experimental: as §2, §3

STK17B (DRAK2) = STK17B (DRAK2) (Homo sapiens, UniProt O94768); test: LanthaScreen europium kinase binding assay; details: BKT300 at 78% purity
Experimental: as §2, §3

SDF-1 = test: Migration assay: Jurkat cells towards SDF-1 (Transwell); format: cell-based, human; details: 10 μg/ml
Experimental: as §1
To evaluate migration towards SDF-1, Jurkat cells were re-suspended in RPMI medium containing 1% fetal calf serum (FCS).

MV4-11 (FLT3-ITD) cells = test: In vivo AML model: NSG mice transplanted with MV4-11 cells; details: BKT300 at 98% purity, 1 mg/Kg intraperitoneally, three consecutive days from day 21; day 25; anti human CD45
Experimental: The effect of BKT300 (at 98% purity) on the proliferation of AML cells in vivo was examined by treatment of NOD Scid gamma (NSG) mice transplanted with MV4-11 (FLT3-ITD) cells.
The mice were subjected to irradiation with 300 rad and on the following day were transplanted by IV injection with MV4-11 (FLT3-ITD) cells, 10×10^6 cells/mouse. 21 days following transplantation, the treated group was injected intraperitoneally with 1 mg/Kg of BKT300 (98% purity) per injection for three consecutive days. On day 25 following transplantation, mice were sacrificed and the survival of the human AML blasts in the blood, spleen and the bone marrow was evaluated using anti human CD45.

MCP-1 = MCP-1 (Homo sapiens, UniProt P13500); test: Migration assay: THP-1 cells towards MCP-1 (Transwell); format: cell-based; details: BKT300 at 78% purity
Experimental: as §1
To evaluate migration towards MCP-1, JTHP-1 cells were re-suspended in RPMI medium containing 1% fetal calf serum (FCS).

[1] = test system: MV4-11 human acute myeloid leukemia cells; test: Cancer cell viability assay, propidium iodide staining (FACS); format: cell-based
Experimental: The cancer cells were incubated in cell medium with 1% fetal calf serum (FCS) at a concentration of 2×10^5 cells/well at a final volume of 250 μl in 96-well plate. The tested small molecule was added to the cells at the indicated concentrations. The cells were incubated for 24 hours and the number of dead and viable cells was then evaluated by fluorescence-activated cell sorting (FACS), using propidium iodide (PI) staining. The IC50 of the small molecule-induced cell death was determined using GraphPad Prism software.
In order to assess the effect of BKT300 on cancer cells viability, the in vitro effect on MV4-11 human acute myeloid leukemia cells was evaluated. The MV4-11 cancer cells were incubated in RPMI cell medium with 1% fetal calf serum (FCS) at a concentration of 2×10^5 cells/well at a final volume of 250 μl in 96-well plate. BKT300 was added to the cells at the indicated concentrations. The cells were incubated for 24 hours and the number of dead and viable cells was then evaluated by fluorescence-activated cell sorting (FACS), using propidium iodide (PI) staining. The IC50 of […] cell death was determined using GraphPad Prism software.

Sequence of MCP-1 (P13500 24-99): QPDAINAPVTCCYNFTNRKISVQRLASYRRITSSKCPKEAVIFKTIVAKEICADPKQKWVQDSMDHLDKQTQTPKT
Sequence of DYRK2 (Q92630 whole entry): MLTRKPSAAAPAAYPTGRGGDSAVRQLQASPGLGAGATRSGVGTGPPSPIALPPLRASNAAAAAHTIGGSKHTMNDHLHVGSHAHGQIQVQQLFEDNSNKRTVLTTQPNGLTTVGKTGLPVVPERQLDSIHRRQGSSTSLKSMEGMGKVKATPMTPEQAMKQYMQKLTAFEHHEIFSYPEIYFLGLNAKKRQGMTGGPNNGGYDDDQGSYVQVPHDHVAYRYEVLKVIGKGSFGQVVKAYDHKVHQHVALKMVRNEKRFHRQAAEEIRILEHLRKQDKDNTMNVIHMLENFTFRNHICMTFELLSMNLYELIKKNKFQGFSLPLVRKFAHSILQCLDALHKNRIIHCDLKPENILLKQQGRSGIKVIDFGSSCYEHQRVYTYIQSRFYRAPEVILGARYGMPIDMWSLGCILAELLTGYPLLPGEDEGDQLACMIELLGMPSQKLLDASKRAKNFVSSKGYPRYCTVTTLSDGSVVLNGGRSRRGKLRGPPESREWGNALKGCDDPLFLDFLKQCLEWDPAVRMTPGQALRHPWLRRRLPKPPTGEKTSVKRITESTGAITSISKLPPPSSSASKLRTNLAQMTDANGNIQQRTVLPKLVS
Sequence of DAPK1 (P53355 whole entry): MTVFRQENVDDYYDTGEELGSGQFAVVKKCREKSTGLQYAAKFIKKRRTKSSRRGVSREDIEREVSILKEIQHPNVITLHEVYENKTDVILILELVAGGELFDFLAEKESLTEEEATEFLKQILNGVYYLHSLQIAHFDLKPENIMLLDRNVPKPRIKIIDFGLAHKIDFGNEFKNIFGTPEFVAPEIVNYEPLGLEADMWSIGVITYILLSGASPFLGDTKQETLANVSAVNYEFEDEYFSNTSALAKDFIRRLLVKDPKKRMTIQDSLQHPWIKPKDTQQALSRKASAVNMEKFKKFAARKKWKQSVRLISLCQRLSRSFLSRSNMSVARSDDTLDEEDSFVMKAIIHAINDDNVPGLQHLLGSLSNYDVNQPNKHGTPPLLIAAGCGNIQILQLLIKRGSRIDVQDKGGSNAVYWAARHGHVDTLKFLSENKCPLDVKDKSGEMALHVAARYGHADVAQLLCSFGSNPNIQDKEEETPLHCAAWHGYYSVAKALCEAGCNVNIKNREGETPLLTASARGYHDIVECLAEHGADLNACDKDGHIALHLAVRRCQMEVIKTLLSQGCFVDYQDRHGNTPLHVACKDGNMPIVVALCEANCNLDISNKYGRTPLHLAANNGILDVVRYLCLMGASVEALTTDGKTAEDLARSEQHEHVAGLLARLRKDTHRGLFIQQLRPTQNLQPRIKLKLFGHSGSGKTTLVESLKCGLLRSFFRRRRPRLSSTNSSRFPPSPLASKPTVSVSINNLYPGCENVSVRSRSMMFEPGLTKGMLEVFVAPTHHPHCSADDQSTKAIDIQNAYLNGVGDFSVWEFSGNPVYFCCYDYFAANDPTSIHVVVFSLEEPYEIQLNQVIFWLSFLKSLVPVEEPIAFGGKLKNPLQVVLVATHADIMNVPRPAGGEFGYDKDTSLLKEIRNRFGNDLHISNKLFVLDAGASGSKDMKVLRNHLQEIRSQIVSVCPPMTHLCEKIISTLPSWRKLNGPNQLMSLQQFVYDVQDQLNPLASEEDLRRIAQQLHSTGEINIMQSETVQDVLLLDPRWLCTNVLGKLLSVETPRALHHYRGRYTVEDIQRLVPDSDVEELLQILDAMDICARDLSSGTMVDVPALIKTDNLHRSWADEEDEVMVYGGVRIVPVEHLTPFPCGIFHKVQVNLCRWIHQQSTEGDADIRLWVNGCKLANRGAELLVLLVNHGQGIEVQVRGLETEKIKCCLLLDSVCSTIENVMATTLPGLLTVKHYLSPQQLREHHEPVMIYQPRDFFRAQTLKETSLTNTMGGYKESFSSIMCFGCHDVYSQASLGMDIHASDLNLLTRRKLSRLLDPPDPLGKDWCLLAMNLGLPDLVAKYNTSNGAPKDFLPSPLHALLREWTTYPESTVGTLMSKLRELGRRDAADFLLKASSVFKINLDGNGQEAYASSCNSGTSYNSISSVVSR
Sequence of PIK3CD (O00329 whole entry): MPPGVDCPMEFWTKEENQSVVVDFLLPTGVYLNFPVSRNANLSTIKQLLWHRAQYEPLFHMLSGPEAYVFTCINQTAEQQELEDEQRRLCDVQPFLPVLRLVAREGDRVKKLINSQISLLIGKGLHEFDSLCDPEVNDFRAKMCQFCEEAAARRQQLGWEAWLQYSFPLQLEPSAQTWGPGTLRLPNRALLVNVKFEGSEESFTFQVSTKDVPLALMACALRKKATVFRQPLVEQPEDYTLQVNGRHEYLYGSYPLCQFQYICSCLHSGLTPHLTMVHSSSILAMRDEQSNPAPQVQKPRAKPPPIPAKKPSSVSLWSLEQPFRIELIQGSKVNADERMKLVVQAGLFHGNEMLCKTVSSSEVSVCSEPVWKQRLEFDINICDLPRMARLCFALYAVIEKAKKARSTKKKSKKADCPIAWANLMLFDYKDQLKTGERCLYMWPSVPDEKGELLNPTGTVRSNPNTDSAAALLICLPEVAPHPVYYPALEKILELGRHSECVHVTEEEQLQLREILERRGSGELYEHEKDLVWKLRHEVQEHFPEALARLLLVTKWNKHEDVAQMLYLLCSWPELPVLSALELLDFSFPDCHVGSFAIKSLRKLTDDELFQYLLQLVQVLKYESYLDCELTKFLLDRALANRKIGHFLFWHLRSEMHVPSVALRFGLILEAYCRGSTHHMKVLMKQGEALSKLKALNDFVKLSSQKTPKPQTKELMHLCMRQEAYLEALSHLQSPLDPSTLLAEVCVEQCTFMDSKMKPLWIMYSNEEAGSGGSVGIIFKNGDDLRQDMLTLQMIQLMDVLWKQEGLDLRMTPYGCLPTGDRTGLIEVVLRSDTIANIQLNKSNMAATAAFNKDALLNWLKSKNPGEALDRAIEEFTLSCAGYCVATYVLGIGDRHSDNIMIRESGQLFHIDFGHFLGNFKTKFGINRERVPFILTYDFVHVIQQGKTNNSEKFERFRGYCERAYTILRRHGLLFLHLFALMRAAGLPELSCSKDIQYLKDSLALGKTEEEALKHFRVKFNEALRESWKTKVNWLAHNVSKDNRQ
Sequence of PIK3CD (P27986 whole entry partner): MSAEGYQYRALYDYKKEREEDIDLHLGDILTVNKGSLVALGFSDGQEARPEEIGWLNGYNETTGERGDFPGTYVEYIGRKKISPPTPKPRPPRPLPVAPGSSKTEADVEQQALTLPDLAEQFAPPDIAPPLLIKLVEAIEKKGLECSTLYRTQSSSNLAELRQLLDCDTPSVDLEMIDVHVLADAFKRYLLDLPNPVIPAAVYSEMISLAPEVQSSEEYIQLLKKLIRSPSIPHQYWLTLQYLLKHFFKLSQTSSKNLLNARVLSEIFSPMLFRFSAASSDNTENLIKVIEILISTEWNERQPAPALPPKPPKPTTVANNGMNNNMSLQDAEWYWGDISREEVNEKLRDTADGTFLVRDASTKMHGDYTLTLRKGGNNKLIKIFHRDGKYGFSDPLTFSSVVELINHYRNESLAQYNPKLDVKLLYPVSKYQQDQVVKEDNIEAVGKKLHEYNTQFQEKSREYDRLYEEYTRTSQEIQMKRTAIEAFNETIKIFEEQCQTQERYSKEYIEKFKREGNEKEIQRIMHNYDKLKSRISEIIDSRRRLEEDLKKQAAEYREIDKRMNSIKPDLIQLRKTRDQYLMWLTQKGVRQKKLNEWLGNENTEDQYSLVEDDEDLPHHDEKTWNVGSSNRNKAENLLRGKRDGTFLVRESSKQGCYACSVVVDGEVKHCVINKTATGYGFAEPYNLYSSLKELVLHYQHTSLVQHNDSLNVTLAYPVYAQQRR
Sequence of STK38 (NDR) (Q15208 whole entry): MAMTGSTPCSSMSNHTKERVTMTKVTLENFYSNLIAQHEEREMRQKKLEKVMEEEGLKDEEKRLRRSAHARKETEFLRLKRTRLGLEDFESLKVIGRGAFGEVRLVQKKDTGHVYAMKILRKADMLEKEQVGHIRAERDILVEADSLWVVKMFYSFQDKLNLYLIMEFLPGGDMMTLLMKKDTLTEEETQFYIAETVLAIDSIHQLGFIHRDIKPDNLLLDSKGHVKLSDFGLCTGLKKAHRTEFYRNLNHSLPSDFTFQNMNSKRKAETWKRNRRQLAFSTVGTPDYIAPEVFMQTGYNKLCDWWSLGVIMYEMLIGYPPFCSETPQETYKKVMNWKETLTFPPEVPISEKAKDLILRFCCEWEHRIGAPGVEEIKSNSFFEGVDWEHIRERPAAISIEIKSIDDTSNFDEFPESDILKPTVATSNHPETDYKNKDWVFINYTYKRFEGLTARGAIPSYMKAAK
Sequence of ACVRL1 (ALK1) (P37023 22-503): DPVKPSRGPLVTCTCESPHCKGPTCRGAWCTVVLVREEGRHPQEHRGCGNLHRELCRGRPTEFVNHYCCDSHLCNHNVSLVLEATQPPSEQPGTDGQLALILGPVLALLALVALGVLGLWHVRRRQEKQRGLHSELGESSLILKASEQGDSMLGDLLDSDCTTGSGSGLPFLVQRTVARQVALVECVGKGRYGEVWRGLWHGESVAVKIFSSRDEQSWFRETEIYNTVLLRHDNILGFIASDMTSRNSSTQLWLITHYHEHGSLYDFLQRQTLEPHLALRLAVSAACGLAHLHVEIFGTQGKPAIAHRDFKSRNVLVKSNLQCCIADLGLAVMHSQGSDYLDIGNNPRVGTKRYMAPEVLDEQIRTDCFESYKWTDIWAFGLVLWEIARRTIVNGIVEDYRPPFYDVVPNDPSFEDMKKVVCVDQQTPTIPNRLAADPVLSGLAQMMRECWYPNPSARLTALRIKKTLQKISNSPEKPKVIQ
Sequence of MIP3a (P78556 27-96): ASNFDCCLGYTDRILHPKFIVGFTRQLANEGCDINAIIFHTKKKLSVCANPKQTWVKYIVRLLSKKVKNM

In the case of `CCCCCc1cc2cc(O)cc(Oc3c(O)cc(O)cc3CCCCC)c2c(=O)o1` [BKT300], the “Inhibition of CD4+ T-cell migration towards MIP3a” value (MIP3a) was “completely inhibited”, the “% Inhibition” value (CDC7/DBF4) was 53% and the “% Inhibition” value (KIT T670E) was 51%. For the same compound, the “% Inhibition” value (MLCK (MLCK2)) was 58%, the “% Inhibition” value (STK38 (NDR)) was 41% and the “% Inhibition” value (DYRK2) was 62%. For the same compound, the “% Inhibition” value (TTK) was 52%, the “% Inhibition” value (ACVRL1 (ALK1)) was 47% and the “% Inhibition” value (DAPK1) was 43%. The “% Inhibition” value (PIK3CD) was 77%, the “% Inhibition” value (STK17B (DRAK2)) was 107% and the “Inhibition of migration of Jurkat cells towards SDF-1” value (SDF-1; BKT300 at 78% purity) was “significantly inhibited”. For the same compound, the “Inhibition of migration of Jurkat cells towards SDF-1” value (SDF-1; BKT300 at 98% purity) was “significantly inhibited”, the “Number and percentage of AML cells in the bone marrow” value (MV4-11 (FLT3-ITD) cells) was “dramatically reduced” and the “Effect on migration of THP-1 cells towards MCP-1” value (MCP-1; 10 μg/ml) was “no apparent effect”. For the same compound, the “Inhibition of migration of THP-1 cells towards MCP-1” value (MCP-1; 50 μg/ml) was “strong inhibition”, the “Concentration at which cell death of MV4-11 cells is induced (as low as; lowest tested)” value ([1]; BKT300 at 78% purity, 24 hours) was no more than 2 µg/mL and the “Degree of cell death of MV4-11 cells, 98% purity compared with 78% purity” value ([1]; BKT300 at 98% purity, 4.25 μg/ml) was “considerably greater degree of cell death”. For the same compound, the “Inducing cell death of MV4-11 cells, 98% purity compared with 78% purity” value ([1]; BKT300 at 98% purity, 2.125, 4.25, 8.5 μg/ml) was “significantly more effective”.
